Measured values taken from patent US20250195530A1, “POLQ INHIBITORS” (ASTRAZENECA AB, priority 2022, published 2025).
Where two headings read alike, the source gives them in different places. One block for each compound: values may come before it.

How the values were obtained:
DLD-1 cells = assay: Inhibition of proliferation, DLD-1 BRCA2 wt control (Cell Titre Glo 3D); assay type: cell-based; settings: for IC50: Homo sapiens; for POLQ PD Prolif Lumin: DLD-1 BRCA2 wt control proliferation
Method in brief: (§1)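 Luminescent Cell Titre Glo 3D readout, taken on day 12 for homologous-recombination-deficient DLD-1 BRCA2−/− and day 7 for the wild-type control, after compound refresh on day 6. Compounds spanned 10 μM to 0.51 nM in three-fold steps; IC50 defined as 50% reduction of average maximum signal.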

DLD-1 BRCA2−/− cells = assay: Homologous recombination synthetic lethal inhibition of proliferation, DLD-1 BRCA2-/- (Cell Titre Glo 3D); assay type: cell-based; settings: for IC50: Homo sapiens; for POLQ PD Prolif Lumin: DLD-1 BRCA2-/- proliferation
Method in brief: as §1

[1] = DLD-1, 168 h, DLD-1 BRCA2 wt cells, 7 days, read-out: POLQ PD Prolif Lumin DLD1 mean pIC50 (converted)
[2] = DLD-1, 288 h, DLD-1 BRCA2−/− cells, 12 days, read-out: POLQ PD Prolif Lumin BRCA2 −/− mean pIC50 (converted)
[3] = DLD-1, DLD-1 BRCA2 wt control proliferation, column head only partly shown, read-out: POLQ PD Prolif Lumin (converted)
[4] = DLD-1, DLD-1 BRCA2-/- proliferation, column head only partly shown, read-out: POLQ PD Prolif Lumin (converted)

SMILES: CC(C)Oc1ccc2c(c1)nc(-c1ccc(OC3CCCN(C)CC3)cc1Cl)n2Cc1ccccc1 (single isomer, unassigned) [Example A10, 1-benzyl-2-(2-chloro-4-((1-methylazepan-4-yl)oxy)phenyl)-5-isopropoxy-1H-benzo[d]imidazole]
IC50 (DLD-1 cells; [1]): 2510 nM | IC50 (DLD-1 BRCA2−/− cells; [2]): 794 nM

SMILES: CC(C)Oc1ccc2c(c1)nc(-c1ccc(OC3CCCN(C)CC3)cc1Cl)n2Cc1ccccc1 (single isomer, unassigned) [Example A11, 1-benzyl-2-(2-chloro-4-((1-methylazepan-4-yl)oxy)phenyl)-5-isopropoxy-1H-benzo[d]imidazole]
POLQ PD Prolif Lumin DLD1 mean pIC50 (DLD-1 cells; DLD-1 BRCA2 wt cells, 7 days): 5.8 | POLQ PD Prolif Lumin BRCA2 −/− mean pIC50 (DLD-1 BRCA2−/− cells; DLD-1 BRCA2−/− cells, 12 days): 6.1

SMILES: CN1CCCC1CCOc1ccc(-c2nc3c(OC4(C)CC4)ncnc3n2Cc2ccccc2)c(Cl)c1 (single isomer, unassigned) [Example D3, 9-benzyl-8-(2-chloro-4-(2-(1-methylpyrrolidin-2-yl)ethoxy)phenyl)-6-(1-methylcyclopropoxy)-9H-purine]
POLQ PD Prolif Lumin DLD1 mean pIC50 (DLD-1 cells; DLD-1 BRCA2 wt cells, 7 days): 5.7 | IC50 (DLD-1 BRCA2−/− cells; [2]): 63.1 nM

SMILES: CN1CCCC1CCOc1ccc(-c2nc3c(OC4(C)CC4)ncnc3n2Cc2ccccc2)c(Cl)c1 (single isomer, unassigned) [Example D4, 9-benzyl-8-(2-chloro-4-(2-(1-methylpyrrolidin-2-yl)ethoxy)phenyl)-6-(1-methylcyclopropoxy)-9H-purine]
POLQ PD Prolif Lumin DLD1 mean pIC50 (DLD-1 cells; DLD-1 BRCA2 wt cells, 7 days): 6.2 | POLQ PD Prolif Lumin BRCA2 −/− mean pIC50 (DLD-1 BRCA2−/− cells; DLD-1 BRCA2−/− cells, 12 days): 7.3

SMILES: CN1CCCC(Oc2ccc(-c3nc4c(OC5(C)CC5)ncnc4n3Cc3ccccc3)c(Cl)c2)CC1 (single isomer, unassigned) [Example D13, 9-benzyl-8-(2-chloro-4-((1-methylazepan-4-yl)oxy)phenyl)-6-(1-methylcyclopropoxy)-9H-purine]
IC50 (DLD-1 cells; [1]): 3980 nM | IC50 (DLD-1 BRCA2−/− cells; [2]): 126 nM

SMILES: CN1CCCC(Oc2ccc(-c3nc4c(OC5(C)CC5)ncnc4n3Cc3ccccc3)c(Cl)c2)CC1 (single isomer, unassigned) [Example D14, 9-benzyl-8-(2-chloro-4-((1-methylazepan-4-yl)oxy)phenyl)-6-(1-methylcyclopropoxy)-9H-purine]
POLQ PD Prolif Lumin DLD1 mean pIC50 (DLD-1 cells; DLD-1 BRCA2 wt cells, 7 days): 5.4 | POLQ PD Prolif Lumin BRCA2 −/− mean pIC50 (DLD-1 BRCA2−/− cells; DLD-1 BRCA2−/− cells, 12 days): 7.0

SMILES: Cc1cnc(Cn2c(-c3ccc(OC4CCCNCC4)cc3Cl)nc3c(OC4(C)CC4)ncnc32)s1 (single isomer, unassigned) [Example T243, 2-((8-(4-(azepan-4-yloxy)-2-chlorophenyl)-6-(1-methylcyclopropoxy)-9H-purin-9-yl)methyl)-5-methylthiazole]
POLQ PD Prolif Lumin (DLD-1 cells; column head only partly shown): <5.0 | POLQ PD Prolif Lumin (DLD-1 BRCA2−/− cells; column head only partly shown): 6.3

SMILES: CC(COc1ccc(-c2nc3c(OC4(C)CC4)ncnc3n2Cc2cccc(Cl)c2)c(Cl)c1)CC(=O)O (single isomer, unassigned) [Example T295, 4-(3-chloro-4-(9-(3-chlorobenzyl)-6-(1-methylcyclopropoxy)-9H-purin-8-yl)phenoxy)-3-methylbutanoic acid]
POLQ PD Prolif Lumin (DLD-1 cells; column head only partly shown): <5.0 | POLQ PD Prolif Lumin (DLD-1 BRCA2−/− cells; column head only partly shown): 6.9

Second part, led by results:

IC50 (DLD-1 cells; [1]): > 10000 nM
SMILES: CC(Cc1ccccn1)n1c(-c2ccc(OCCN3CCNCC3)cc2Cl)nc2c(OC3(C)CC3)ncnc21 (single isomer, unassigned) [Example S8, 8-(2-chloro-4-(2-(piperazin-1-yl)ethoxy)phenyl)-6-(1-methylcyclopropoxy)-9-(1-(pyridin-2-yl)propan-2-yl)-9H-purine]
POLQ PD Prolif Lumin BRCA2 −/− mean pIC50 (DLD-1 BRCA2−/− cells; DLD-1 BRCA2−/− cells, 12 days): 5.0

IC50 (DLD-1 cells; [3]): > 10000 nM
SMILES: Cc1cnc(Cn2c(-c3ccc(OC4CCCNCC4)cc3Cl)nc3c(OC4(C)CC4)ncnc32)s1 (single isomer, unassigned) [Example T242, 2-((8-(4-(azepan-4-yloxy)-2-chlorophenyl)-6-(1-methylcyclopropoxy)-9H-purin-9-yl)methyl)-5-methylthiazole]
IC50 (DLD-1 BRCA2−/− cells; [4]): 794 nM

IC50 (DLD-1 cells; [3]): > 10000 nM
SMILES: CC(COc1ccc(-c2nc3c(OC4(C)CC4)ncnc3n2Cc2cccc(Cl)c2)c(Cl)c1)CC(=O)O (single isomer, unassigned) [Example T294, 4-(3-chloro-4-(9-(3-chlorobenzyl)-6-(1-methylcyclopropoxy)-9H-purin-8-yl)phenoxy)-3-methylbutanoic acid]
IC50 (DLD-1 BRCA2−/− cells; [4]): 158 nM
